Assay results: patent publication US20220089589A1, “SMALL MOLECULE DEGRADERS OF FKBP12 VIA RECRUITMENT OF VON HIPPEL-LINDAU E3 UBIQUITIN LIGASE (VHL) E3 UBIQUITIN LIGASE, AND USES IN dTAG SYSTEMS” (DANA-FARBER CANCER INSTITUTE, INC., priority 2019, published 2022)
“Also recorded” adds a separate entry of the source.

Legend:
Format in all cases: cell-based
[1] = tested on: PATU-8902 FKBP12^F36V-KRAS^G12V; KRAS^−/− clone; assay: Cell transformation by growth in ultra-low attachment conditions, PATU-8902 FKBP12^F36V-KRAS^G12V; KRAS^−/− clone (Example 13); settings: 0.000063-2 μM, 120 hrs
Procedure: (§1) PATU-8902 LACZ-FKBP12^F36V or FKBP12^F36V-KRAS^G12V; KRAS^−/− clones were plated in 384-well format in ultra-low attachment conditions, allowed to form 3D-spheroids overnight, and treated with various dTAG molecules from compound stock plates using a JANUS® Workstation pin tool for 120 hrs. To measure cell transformation, Cell Tilter-Glo® was added to wells for 15 minutes at room temperature and luminescence was measured on an EnVision™ 2104 Multilabel Plate Reader.

FKBP12^F36V-KRAS^G12V [2] = assay: Immunoblotting of PATU-8902 FKBP12^F36V-KRAS^G12V; KRAS^−/− clone (Example 8), HA; settings: 50 or 500 nM, 4 hrs
Procedure: (§2) PATU-8902 FKBP12^F36V-KRAS^G12V; KRAS^−/− clone was plated in 6-well format, allowed to adhere overnight, and treated with 50 nM and 500 nM dTAG molecules for 4 hrs. Following treatment, cells were lysed in RIPA buffer on ice for 60 minutes. Lysates were clarified by centrifugation at 20,000×g for 10 minutes at 4° C. Immunoblotting was performed to determine changes in protein levels with an Odyssey CLx Imager. The indicated antibodies were employed including HA to monitor FKBP12^F36V-KRAS^G12V degradation, total and phosphorylated ERK to evaluate changes in ERK signaling, total and phosphorylated AKT to evaluate changes in AKT signaling and α-TUBULIN as a loading control.

LACZ-FKBP12^F36V = assay: Immunoblotting of PATU-8902 LACZ-FKBP12^F36V clone (Example 6); settings: 50 or 500 nM, 4 hrs
Procedure: PATU-8902 LACZ-FKBP12^F36V clone was plated in 6-well format, allowed to adhere overnight, and treated with 50 nM and 500 nM dTAG molecules for 4 hrs. Following treatment, cells were lysed in RIPA buffer on ice for 60 minutes. Lysates were clarified by centrifugation at 20,000×g for 10 minutes at 4° C. Immunoblotting was performed to determine changes in protein levels with an Odyssey CLx Imager. The indicated antibodies were employed including HA (hemagglutinin) to monitor LACZ-FKBP12^F36V degradation and α-TUBULIN as a loading control.

pERK = assay: Immunoblotting of PATU-8902 FKBP12^F36V-KRAS^G12V; KRAS^−/− clone (Example 8), ERK signaling; settings: 50 or 500 nM, 4 hrs
Procedure: as §2

[3] = tested on: PATU-8902 FKBP12^F36V-KRAS^G12V; KRAS^−/− clone; assay: Anti-proliferation via CellTiter-Glo, PATU-8902 FKBP12^F36V-KRAS^G12V; KRAS^−/− clone (Example 12); settings: 0.000063-2 μM, 72 hrs
Procedure: (§3) PATU-8902 LACZ-FKBP12^F36V or FKBP12^F36V-KRAS^G12V; KRAS^−/− clones were plated in 384-well format, allowed to adhere overnight, and treated with various dTAG molecules from compound stock plates using a JANUS® Workstation pin tool for 72 hrs. To measure cell viability, Cell Tilter-Glo® was added to wells for 15 minutes at r.t. and luminescence was measured on an EnVision™ 2104 Multilabel Plate Reader.

pAKT = assay: Immunoblotting of PATU-8902 FKBP12^F36V-KRAS^G12V; KRAS^−/− clone (Example 8), AKT signaling; settings: 50 or 500 nM, 4 hrs
Procedure: as §2

control NIH/3T3 cells = assay: Anti-proliferation in mock transduced (control) NIH/3T3 cells by ATPlite assay; settings: 0.00063-20 μM, 72 hrs, at high doses
Procedure: (§4) NIH/3T3 cells, that were mock transduced (control) or stably expressing with FKBP12^F36V-KRAS^G12V, were plated in 384-well format, allowed to adhere overnight, and treated with various dTAG molecules from compound stock plates using a JANUS® Workstation pin tool for 72 hrs. To measure cell viability, ATPlite™ was added to wells for 15 minutes at room temperature and luminescence was measured on an EnVision™ 2104 Multilabel Plate Reader.

[4] = tested on: NIH/3T3 cells expressing FKBP12^F36V-KRAS^G12V; assay: Anti-proliferation in NIH/3T3 cells expressing FKBP12^F36V-KRAS^G12V by ATPlite assay; settings: 0.00063-20 μM, 72 hrs, NIH/3T3 expressing FKBP12^F36V-KRAS^G12V
Procedure: as §4

[5] = tested on: PATU-8902 FKBP12^F36V-KRAS^G12V; KRAS^−/− clone; assay: Anti-proliferation via CellTiter-Glo, PATU-8902 FKBP12^F36V-KRAS^G12V; KRAS^−/− clone (Example 11); settings: 0.00063-20 μM, 72 hrs
Procedure: (§5) PATU-8902 LACZ-FKBP12^F36V or FKBP12^F36V-KRAS^G12V; KRAS^−/− clones were plated in 384-well format, allowed to adhere overnight, and treated with various dTAG molecules from compound stock plates using a JANUS® Workstation pin tool for 72 hrs. To measure cell viability, CellTilter-Glo® was added to wells for 15 minutes at r.t. and luminescence was measured on an EnVision™ 2104 Multilabel Plate Reader.

FKBP12^F36V-EWS/FLI = assay: Immunoblotting of EWS502 FKBP12^F36V-EWS/FLI; EWS/FLI^−/− cells; settings: dTAG-13 10-5000 nM, compound 1 50-5000 nM, 24 hrs, EWS502 cells
Procedure: (§6) EWS502 FKBP12^F36V-GFP and FKBP12^F36V-EWS/FLI; EWS/FLP^−/− cells were plated in 6-well format, allowed to adhere overnight, and treated with (10-5000 nM) dTAG-13 or (50-5000 nM) compound 1 for 24 hrs. Following treatment, cells were lysed in Cell Lysis Buffer (Cell Signaling Technology®) on ice for 60 minutes. Lysates were clarified by centrifugation at 20,000×g for 10 minutes at 4° C. Immunoblotting was performed to determine changes in protein levels upon incubation with the appropriate horseradish peroxidase-conjugated secondary antibodies. The indicated antibodies were employed including HA to monitor FKBP12^F36V-GFP or FKBP12^F36V-EWS/FLI degradation and Vinculin as a loading control.

FKBP12^F36V-KRAS^G12V [6] = assay: Immunoblotting of 293T^WT FKBP12^F36V-KRAS^G12V cells; settings: 50 or 500 nM, 24 hrs
Procedure: (§7) 293T^WT or 293T^VHL−/− FKBP12^F36V-KRAS^G12V cells were plated in 6-well format, allowed to adhere overnight, and treated with 50 nM and 500 nM dTAG molecules for 24 hrs. Following treatment, cells were lysed in RIPA buffer on ice for 60 minutes. Lysates were clarified by centrifugation at 20,000×g for 10 minutes at 4° C. Immunoblotting was performed to determine changes in protein levels with an Odyssey CLx Imager. The indicated antibodies were employed including HA to monitor FKBP12^F36V-KRAS^G12V degradation and α-TUBULIN as a loading control.

FKBP12^F36V-KRAS^G12V [7] = assay: Immunoblotting of 293T^VHL−/− FKBP12^F36V-KRAS^G12V cells; settings: 50 or 500 nM, 24 hrs
Procedure: as §7

[8] = tested on: PATU-8902 LACZ-FKBP12^F36V clone; assay: Cell transformation by growth in ultra-low attachment conditions, PATU-8902 LACZ-FKBP12^F36V control clone (Example 13); settings: 0.000063-2 μM, 120 hrs
Procedure: as §1

[9] = tested on: PATU-8902 LACZ-FKBP12^F36V clone; assay: Anti-proliferation via CellTiter-Glo, PATU-8902 LACZ-FKBP12^F36V control clone (Example 11); settings: 0.00063-20 μM, 72 hrs
Procedure: as §5

FKBP12^F36V-GFP = assay: Immunoblotting of EWS502 FKBP12^F36V-GFP cells; settings: dTAG-13 10-5000 nM, compound 1 50-5000 nM, 24 hrs
Procedure: as §6

[10] = tested on: PATU-8902 LACZ-FKBP12^F36V clone; assay: Anti-proliferation via CellTiter-Glo, PATU-8902 LACZ-FKBP12^F36V control clone (Example 12); settings: 0.000063-2 μM, 72 hrs
Procedure: as §3

SMILES	loss of cell transformation (3D-spheroids, % DMSO control) [1]	degradation of FKBP12^F36V-KRAS^G12V (immunoblot) (FKBP12^F36V-KRAS^G12V [2])	degradation of LACZ-FKBP12^F36V (immunoblot) (LACZ-FKBP12^F36V)	pERK levels (immunoblot) (pERK)	anti-proliferative effects / loss of cell viability (% DMSO control) [3]	pAKT levels (immunoblot) (pAKT)	anti-proliferative effects on control cells (control NIH/3T3 cells)	anti-proliferative effects / loss of cell viability (% DMSO control) [4]	anti-proliferative effects / loss of cell viability (% DMSO control) [5]	degradation of FKBP12^F36V-EWS/FLI (immunoblot) (FKBP12^F36V-EWS/FLI)	degradation of FKBP12^F36V-KRAS^G12V in 293T^WT cells (immunoblot) (FKBP12^F36V-KRAS^G12V [6])	degradation of FKBP12^F36V-KRAS^G12V in 293T^VHL−/− cells (immunoblot) (FKBP12^F36V-KRAS^G12V [7])	effects on cell transformation of LACZ-FKBP12^F36V control clone [8]	anti-proliferative effects on LACZ-FKBP12^F36V control clone [9]	degradation of FKBP12^F36V-GFP (immunoblot) (FKBP12^F36V-GFP)	anti-proliferative effects on LACZ-FKBP12^F36V control clone [10]
CC[C@H](C(=O)N1CCCC[C@H]1C(=O)O[C@H](CCc1ccc(OC)c(OC)c1)c1ccccc1OCC(=O)NCCCCCCC(=O)N[C@H](C(=O)N1C[C@@H](O)C[C@@H]1C(=O)N[C@@H](C)c1ccc(-c2scnc2C)cc1)C(C)(C)C)c1cc(OC)c(OC)c(OC)c1 [Compound 2, (R)-3-(3,4-dimethoxyphenyl)-1-(2-(2-((7-(((S)-1-((2R,4S)-4-hydroxy-2-(((S)-1-(4-(4-methylthiazol-5-yl)phenyl)ethyl)carbamoyl)pyrrolidin-1-yl)-3,3-dimethyl-1-oxobutan-2-yl)amino)-7-oxoheptyl)amino)-2-oxoethoxy)phenyl)propyl (S)-1-((S)-2-(3,4,5-trimethoxyphenyl)butanoyl)piperidine-2-carboxylate]	little to no loss of viability; also recorded: limited toxicity at high doses	Lack of degradation; also recorded: no effect	Lack of degradation; also recorded: no effect	no effect	little to no loss of viability; also recorded: little to no toxicity	no effect										
CC[C@H](C(=O)N1CCCC[C@H]1C(=O)O[C@H](CCc1ccc(OC)c(OC)c1)c1ccccc1OCC(=O)NCCCCCCOc1cccc2c1C(=O)N(C1CCC(=O)N(C)C1=O)C2=O)c1cc(OC)c(OC)c(OC)c1 (stereo partly drawn) [Compound 5]	little to no loss of viability; also recorded: limited toxicity at high doses	Lack of degradation; also recorded: no effect	Lack of degradation; also recorded: no effect	no effect	little to no loss of viability; also recorded: little to no toxicity	no effect										
CC[C@H](C(=O)N1CCCC[C@H]1C(=O)O[C@H](CCc1ccc(OC)c(OC)c1)c1ccccc1OCC(=O)NCCOCCOCCOCC(=O)N[C@H](C(=O)N1C[C@H](O)C[C@H]1C(=O)NCc1ccc(-c2scnc2C)cc1)C(C)(C)C)c1cc(OC)c(OC)c(OC)c1 [dTAG-12]							Limited anti-proliferative effects	Effective loss of viability; also recorded: potent anti-proliferative effects								
CC[C@H](C(=O)N1CCCC[C@H]1C(=O)O[C@H](CCc1ccc(OC)c(OC)c1)c1ccccc1OCC(=O)NCCCCCCOc1cccc2c1C(=O)N(C1CCC(=O)NC1=O)C2=O)c1cc(OC)c(OC)c(OC)c1 (stereo partly drawn) [dTAG-13, reference compound]	Effective loss of viability; also recorded: potent loss of cell transformation	potent degradation	rapid degradation; also recorded: potent degradation	pronounced diminished levels	Effective loss of viability; also recorded: potent anti-proliferative effects	pronounced diminished levels		Effective loss of viability; also recorded: potent anti-proliferative effects	Effective loss of viability; also recorded: potent anti-proliferative effects	not	potent degradation	Degradation of mutant KRAS was observed; also recorded: potent degradation	limited effects	limited effects	Degradation of GFP (control) is observed; also recorded: potent degradation	limited effects
CC[C@H](C(=O)N1CCCC[C@H]1C(=O)O[C@H](CCc1ccc(OC)c(OC)c1)c1ccccc1OCC(=O)NCCOCCOCCOCC(=O)N[C@H](C(=O)N1C[C@H](O)C[C@H]1C(=O)N[C@@H](C)c1ccc(-c2scnc2C)cc1)C(C)(C)C)c1cc(OC)c(OC)c(OC)c1 [dTAG-63]							Limited anti-proliferative effects	Effective loss of viability; also recorded: potent anti-proliferative effects	Effective loss of viability; also recorded: potent anti-proliferative effects					limited effects		
